The results in this text go back to PubChem BioAssay AID493002 (Sanford-Burnham Center for Chemical Genomics, 2010).

Structures are written as SMILES.

The subject of the assay is S. cerevisiae tim23-1 mutant growth, luminescence. Kind of assay: potency against tim23-1 yeast growth – luminescence, uHTS hits, dose response (AID 493002).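 Further: yeast grown roughly 22 hours at 25 °C before the luminescence read.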
As to `COC(=O)c1cccc(-c2ccc(C(c3c(C)[nH][nH]c3=O)c3c(C)[nH][nH]c3=O)o2)c1`, the IC50 (commonly the point on the concentration scale where inhibition reaches its midpoint) is 15.1 µM.

On to `COc1cccc2c1C(=O)C=C(C)C2=O`, for which the concentration for half-maximal inhibition (IC50) was 5.32 µM.

In the case of `COc1ccc(-c2cccc(NC(=O)c3cccs3)c2)nn1`, the IC50 is 14.2 µM.

As for `COc1ccc(NC(=O)Nc2cccc3cccnc23)cc1`, the IC50 was 40.1 µM.

Take `Cc1ccc(Nc2nc(-c3sc(N)nc3C)cs2)cc1`: the IC50 is 13.4 µM.

Take `Cc1csc2nc(O)c(C(=O)NC3CCCCC3C)c(=O)n12` (stereo unspecified): the IC50 is 12.2 µM.

For `COc1ccc(/C=C(\C#N)c2nc3ccccc3[nH]2)cc1O`, the IC50 was 14.8 µM.

Take `COc1cccc(/C=N/NC(=O)c2cc(C34CC5CC(CC(C5)C3)C4)[nH]n2)c1`: the IC50 is 10.9 µM.

As to `O=C(N/N=C/C(Br)=C/c1ccccc1)c1ccccc1F`, the IC50 was 12.3 µM.

For the compound `CC1(C)CC2CC(C)(CN2C(=O)c2cc(-c3ccc(O)cc3)on2)C1` (stereo unspecified), the IC50 is 15.3 µM.

Turning to `CCOc1nc2ccccc2cc1C=O`, the IC50 is 3.43 µM.

As to `CCCCC(=O)NC(c1ccc(Cl)cc1)c1ccc2cccnc2c1O` (stereo unspecified), the 50% inhibitory concentration (IC50) is 9.68 µM.

For `O=C(Nc1nc2ccccc2s1)C1CCCN1S(=O)(=O)c1ccc(Cl)cc1` (stereo unspecified), the IC50 is 8.08 µM.

`CCOC(=O)NNc1ccc2nonc2c1[N+](=O)[O-]`: the IC50 is 6.6 µM.

As for `Cc1ccc(-c2nnc(N3CCC(C)CC3)c3ccccc23)cc1`, the IC50 is 13.7 µM.

Regarding `CC(=O)c1sc(-c2ccc(Cl)cc2)cc1N`, the IC50 is 18.8 µM.

For `Cc1ccc2c(c1)COc1c3ccc(C(=O)NC(C)C)cc3nn1-2`, the IC50 was 24 µM.

Consider `CCN(CC)c1ccc(/C=C2/C(=O)ON=C2C)cc1`, for which the IC50 is 14.6 µM.

Regarding `Nc1ccc(/C=C/C(=O)c2cccs2)cc1`, the IC50 was 4.31 µM.

Consider `COc1ccc(NCc2ccc([N+](=O)[O-])s2)cc1`, for which the IC50 is 6.99 µM.

On to `O=C(CSc1ccccc1)N/N=C/c1ccccc1O`, for which the IC50 is 27.5 µM.

Take `CCc1ccc2oc(-c3cc(N)ccc3Cl)nc2c1`: the half-maximal inhibitory concentration (IC50) is 6.18 µM.

In the case of `COCCn1c(C)cc(C(=O)COC(=O)c2ccc([N+](=O)[O-])o2)c1C`, the IC50 was 6.98 µM.

Turning to `CCOC(=O)Nc1ccc2c(c1)Nc1ccccc1S2`, the IC50 is 11.3 µM.

Turning to `CCc1cccc2c(C(=O)CCl)c[nH]c12`, the IC50 is 9.27 µM.

For `Cc1ccc2nc(NC(=O)Cn3nc(C)c([N+](=O)[O-])c3C)sc2c1`, the IC50 was 6.13 µM.

Take `NC(=S)N/N=C/c1coc2ccc(Br)cc2c1=O`: the IC50 was 4.4 µM.

`Cc1ccc(S(=O)(=O)N2C(=O)[C@@H]3Cc4ccccc4CN3C2=O)cc1`: the IC50 was 30.5 µM.

Take `CCc1nc(SCc2ccccn2)c2c(=O)n(C)c(=O)n(C)c2n1`: the IC50 was 16.3 µM.

`Cc1ccc(C(=O)NC(=S)NCc2ccccc2)cc1`: the IC50 was 12.1 µM.

As for `Cc1nc2scc(C)n2c(=O)c1S(=O)(=O)Nc1ccc(N2CCOCC2)cc1`, the IC50 was 6.67 µM.

For `O=C(N/N=C/C=C\c1ccco1)c1cccs1`, the IC50 is 8.95 µM.

On to `COc1ccc(S(=O)(=O)CC(=O)c2cc3cccc(C)c3oc2=O)cc1`, for which the IC50 was 13 µM.

On to `O=Cc1cnc2ccccc2c1-c1ccccc1`, for which the IC50 is 6.97 µM.

On to `CCN(CC)S(=O)(=O)c1ccc(C(=O)OCn2nnc3ccccc3c2=O)cc1`, for which the IC50 is 9.32 µM.

Consider `NC(N)=N/N=C/c1ccc(OCc2ccccc2Cl)cc1`, for which the half-inhibitory concentration (IC50) is 18 µM.
